{"source": "patent US7910568B2", "about": "“Derivatives of 4- or 5-aminosalicylic acid” (Antibe Therapeutics Inc., priority 2005, dated 2011)", "key": {"[1]": {"test_system": "leukocyte adherence to the vascular endothelium", "test": "Aspirin-induced leukocyte adherence to the vascular endothelium, intravital microscopy of mesenteric venules", "type": "in vivo, rat", "procedure": "Leukocyte adherence was studied using intravital microscopy, as described in detail previously (Wallace et al., (1993) Am. J. Physiol. 265: 993-998, incorporated hereto by reference). Rats were anesthetized with pentobarbital sodium (60 mg/kg i.p.) and cautery incisions were made along the abdominal region. A tracheotomy was performed to facilitate breathing. The rats were placed in a supine position, and a segment of the mesentery was exteriorized through the abdominal incision. The mesentery was carefully placed over an optically clear viewing pedestal that allowed for trans-illumination of a 2-cm^2 segment of tissue. All exposed tissue was covered with saline-soaked gauze to minimize dehydration. The temperature of the pedestal was kept at 37° C. and the mesentery was superfused with warmed bicarbonate-buffered saline (pH 7.4). An intravital microscope (Nikon L25/0.35) and a ×10 eyepiece were used to observe the mesenteric microcirculation. Post-capillary venules with diameters ranging from 20 to 40 μm were selected for the study. A video camera mounted on the microscope (Panasonic™ digital 5000) projected the image onto a monitor, and the images were recorded for playback analysis using a videocassette recorder. Images of the mesenteric microcirculation were recorded 5 minutes prior to aspirin administration (baseline), at the time of aspirin administration (time 0-5) and every 15 minutes for 60 minutes. Leukocyte adherence was blindly quantified from videotaped images of the vessels made over 5-min periods as the number of leukocytes that remained stationary along the vessel wall for 30 s or more (expressed per 100 μm venule length). Groups of rats (at least 5 in each) were pretreated with Compound XXXV (130 mg/kg), Compound XXVII (100 mg/kg), mesalamine (50 mg/kg), or vehicle 60 min prior to aspirin (or vehicle) administration. These drugs were given intragastrically. In some experiments, rats were treated with glibenclamide (10 mg/kg i.p.) or vehicle 30 min prior to administration of these compounds."}, "[2]": {"conditions": "after patients have taken the usual doses; Dig. Dis. Sci. 1989; 34: 573-578; cited from earlier work"}, "[3]": {"test": "Viability of HT-29 human colon cancer cells, MTT assay", "type": "cell-based", "conditions": "HT-29 colon cancer cells, 72 h exposure, HT-29, MTT, read-out: Cell viability rate as a percent of the vehicle (DMSO)-treated cells", "procedure": "HT-29 cells were grown in culture using standard methods. The cells were exposed to vehicle (DMSO), mesalamine or Compound XXXV. Concentrations ranging from 0.1 to 10 μM were tested, with each concentration tested in 6 wells. At the end of 72 h of exposure to the test drugs, cell viability was measured using the MTT [3-(4,5-dimethylthiaxol-2-yl)-2,5-diphenyltetrazolium bromide] assay (Carmichael et al. (1978) Cancer Res. 47, 936-942), incorporated herein by reference."}, "[4]": {"test_system": "visceral pain perception in response to colorectal distension", "test": "Rat model of visceral pain perception, colorectal distension, abdominal withdrawal reflex score", "type": "in vivo", "conditions": "for Pain perception score after glibenclamide pretreatment: glibenclamide 10 mg/kg i.p. 30 min before", "procedure": "A rat model of visceral pain perception, a pre-clinical model of irritable bowel syndrome, was used in the following example. Rats (male, Wistar, 200-250 g, obtained from Charles River, Monza, Italy), were housed in plastic cages and maintained under controlled conditions with 12-hours light/dark cycle with lights on at 7.00 AM. Tap water and standard laboratory chow were freely available. Before experiments, rats were individually trained by spending 2-3 hours per day in a plexiglass cage for 2-3 days. It allowed them to adjust to a movement-restriction environment. Food was withheld for 12 hours before colorectal distension (CRD) recording were performed. Experiments were performed in awake rats and were conducted in a blind manner in that the observer was not aware of the identity of drug administered to each animal.\nIn the testing day, rats were sedated with ether inhalation and a 2 cm long latex balloon was inserted intrarectally 2 cm from the anal verge and fixed at the base of the tail. The balloon was connected via a double-barreled cannula to a pressure transducer to continuously monitoring the rectal pressure by a computer (PowerLab PC, A.D. Instruments, Milford, Mass., USA) and to a syringe for inflation/deflation of the balloon. The rats were then housed in a small cage (20×8×8 cm) on an elevated Plexiglas™ platform and allowed to wake up and adapt for 1 hour. After recovery from sedation, animals underwent the CRD procedure and behavioral responses were tested. The night before the experiments, the balloons were inflated and left overnight so the latex stretched and the balloons became compliant.\nCRD of 20 seconds, performed every 5 minutes, was applied in increment of 0.4 ml starting from 0.4 ml up to 1.6 ml water. To achieve an accurate measurement of the colonic parameters and perception, the distensions were repeated twice for each intensity and data for each animal were averaged for analysis. Each animal underwent a double set of CRD. Twenty minutes after the first sequence of CRD (0.4 mL-1.6 ml water), drugs were administered intraperitoneally (i.p.) and a second set of CRD was performed. Behavioral responses during the first and the second set of CRD were assessed and compared.\nBehavioral response to CRD was assessed by measuring the abdominal withdrawal reflex (AWR) using a semiquantitative score (1).\nThe effects of mesalamine and Compound XXXV on colonic compliance and sensitivity were determined using a total of 8 fasting rats. To investigate whether the administration of mesalamine and Compound XXXV could revert pain induced by CRD, after the first sequence of CRD, […], after which a second set of CRD was repeated.\nAll data are presented as the mean±SEM, with sample sizes of 4 rats/group; statistical comparison of paired data was performed by the Wilcoxon signed rank test. An associated probability (p value) of less that 5% was considered significant."}, "[5]": {"test_system": "thoracic aorta rings", "test": "Vasorelaxant effect on phenylephrine-precontracted thoracic aorta rings", "set-up": "species or system CD-1 mice", "conditions": "cumulative 10 nM-3 mM on PE (1 μM) precontracted rings with endothelium; FIG. 22", "procedure": "CD-1 mice were sacrificed and thoracic aorta was rapidly dissected and cleaned from fat and connective tissue. […] Changes in isometric tension were recorded with PowerLab™ data acquisition system (Ugo Basile, Italy). […] Rings were initially stretched until a resting tension of 1.5 g was reached and allowed to equilibrate for at least 40 minutes during which tension was adjusted, when necessary, to 1.5 g and bathing solution was periodically changed.\nVehicle represents buffer but no compound. Curves to tested compounds were constructed in presence of endothelium.\nData obtained are shown in FIG. 22 and are expressed as mean±SEM. The level of statistical significance was determined by 2-way analysis of variance (ANOVA) followed by Bonferroni's test for multiple comparison, using the GraphPad™ software."}, "[6]": {"test": "H2S generation in buffer, liver homogenate and liver homogenate with PAG, sulfide sensitive electrode", "type": "in vitro ADME, rat", "conditions": "1 mM compound, FIG. 21; for Effect of PAG (DL-propargylglycine) on H2S generation in liver homogenate: PAG 2 mM, inhibitor of cystathionine γ-lyase; for H2S release in buffer: potassium phosphate buffer pH 7.4, 37° C."}, "[7]": {"test_system": "TNBS-induced colitis", "test": "TNBS-induced colitis in mice, disease activity score", "type": "in vivo", "conditions": "Compound XXVII 100 mg/kg vs mesalamine 50 mg/kg, 4-HTB 50 mg/kg and their mixture; FIG. 5", "procedure": "(§1) A standard experimental animal model of colitis induced by intracolonic administration of 2,4,6-trinitrobenzene sulfonic acid (TNBS) to mice is used in the following example. A detailed description of this model has been published (Santucci et al. (2003) Gastroenterology 124:1381-94) and is incorporated herein by reference. Briefly, 6-8 week old Balb/c mice were given TNBS intracolonically at a dose of 1.5 mg in 0.1 mL of 30% ethanol. The mice were randomized to the various treatment groups (n=6 per group). Beginning one hour later and continuing every 12 h for 5 days, the mice were treated orally with vehicle (1% carboxymethylcellulose (CMC)), 5-ASA (mesalamine) (25, 50 or 75 mg/kg) or with equimolar doses of 2-hydroxy-5-amino-benzoic acid 4-(thioxo-5H-[1,2]dithiol-3-yl)-phenyl ester hydrochloride (Compound XXXV) (130 mg/kg), or with […] (100 mg/kg), 50% (66 mg/kg) and 25% (33 mg/kg) of that dose. The mice were evaluated (blindly) on the final day of the study for the presence of diarrhea and fecal occult blood, and their body weights were measured. […] After sacrifice, a sample of the colon was excised for measurement of myeloperoxidase (MPO) activity, as a marker of granulocyte infiltration. All results were compared to those obtained with healthy mice as well."}, "[8]": {"test_system": "myeloperoxidase (MPO) activity", "test": "TNBS-induced colitis in mice, colonic myeloperoxidase (MPO) activity as marker of granulocyte infiltration", "type": "in vivo", "conditions": "Compound XXVII 100 mg/kg; FIG. 6", "procedure": "as §1"}, "[9]": {"conditions": "0.8 mL colorectal distention, 100 mg/kg, FIG. 17"}, "[10]": {"conditions": "equimolar doses: mesalamine 50 mg/kg, Compound XXXV 130 mg/kg, ADT-OH 80 mg/kg, Compound XXVII 100 mg/kg, 4-HTB 50 mg/kg, vs vehicle"}}}
{"smiles": "Nc1ccc(O)c(C(=O)O)c1", "note": "[Mesalamine, 5-aminosalicylic acid]", "values": [{"measurement": "Aspirin-induced leukocyte adherence after glibenclamide pretreatment", "setting": "[1]; glibenclamide 10 mg/kg i.p. 30 min prior to the compound, FIG. 19", "result": "no effect"}, {"measurement": "Concentration in the colonic lumen", "setting": "[2]", "result": "up to 5 mM"}, {"measurement": "viability at 72 h, 0.1 µM", "setting": "[3]; 0.1 μM", "result": "104 ± 2.5", "unit": "%"}, {"measurement": "viability at 72 h, 1 µM", "setting": "[3]; 1 μM", "result": "101 ± 3.5", "unit": "%"}, {"measurement": "viability at 72 h, 10 µM", "setting": "[3]; 10 μM", "result": "91.1 ± 3.2", "unit": "%"}, {"measurement": "Pain perception score after glibenclamide pretreatment", "setting": "[4]; [9]", "result": "did not affect the pain perception"}, {"measurement": "Pain perception score", "setting": "[4]; [9]", "result": "no significant effect"}, {"measurement": "Pain perception score", "setting": "[4]; [10]", "result": "Only Compound XXXV and Compound XXVII significantly reduced pain perception"}]}
{"smiles": "CC(=N)S", "note": "[thioacetamide]", "values": [{"measurement": "Vasorelaxant effect (% relaxation), concentration dependent, compared to vehicle", "setting": "[5]", "result": "significant vasorelaxant effects"}]}
{"smiles": "N[C@@H](CS)C(=O)O", "note": "[L-cysteine, reference compound]", "values": [{"measurement": "Effect of PAG (DL-propargylglycine) on H2S generation in liver homogenate", "setting": "[6]", "result": "markedly inhibited"}, {"measurement": "H2S release in buffer", "setting": "[6]", "result": "did not release significant H2S"}]}
{"smiles": "NC(=S)c1ccc(O)cc1", "note": "[Compound 4-HTB, 4-hydroxythiobenzamide, reference compound]", "values": [{"measurement": "Vasorelaxant effect (% relaxation), concentration dependent, compared to vehicle", "setting": "[5]", "result": "significant vasorelaxant effects"}, {"measurement": "H2S release in buffer", "setting": "[6]", "result": "did not release significant H2S"}, {"measurement": "Pain perception score", "setting": "[4]; [10]", "result": "Only Compound XXXV and Compound XXVII significantly reduced pain perception"}]}
{"smiles": "NC(=S)c1ccc(OC(=O)c2cc(N)ccc2O)cc1", "note": "[Compound XXVII, 5-Amino-2-hydroxy-benzoic acid 4-thiocarbamoyl-phenyl ester]", "values": [{"measurement": "Aspirin-induced leukocyte adherence, final time period", "setting": "[1]; minutes 60-65, XXXV 130 mg/kg, XXVII 100 mg/kg intragastric, FIG. 20", "result": "suppress aspirin-induced leukocyte adherence"}, {"measurement": "Aspirin-induced leukocyte adherence, final time period, after glibenclamide pretreatment", "setting": "[1]; minutes 60-65, glibenclamide 10 mg/kg i.p., FIG. 20", "result": "reverse this inhibitor effect"}, {"measurement": "Effect of PAG (DL-propargylglycine) on H2S generation in liver homogenate", "setting": "[6]", "result": "lack of effect"}, {"measurement": "H2S release in buffer", "setting": "[6]", "result": "release H2S spontaneously (in buffer)"}, {"measurement": "H2S release in liver homogenate compared with buffer", "setting": "[6]; rat liver homogenate 10% (wt/vol)", "result": "greater when in the presence of tissue"}, {"measurement": "Disease Activity Index", "setting": "[7]", "result": "almost three times as effective as either mesalamine alone, 4-HTB alone or a mixture of mesalamine and 4-HTB"}, {"measurement": "MPO activity (granulocyte infiltration)", "setting": "[8]", "result": "significantly reduced inflammation"}, {"measurement": "Pain perception score after glibenclamide pretreatment", "setting": "[4]; [9]", "result": "reversed by pretreatment with glibenclamide"}, {"measurement": "Pain perception score", "setting": "[4]; [9]", "result": "significantly reduced the pain perception"}, {"measurement": "Pain perception score", "setting": "[4]; [10]", "result": "significantly reduced pain perception"}]}
{"smiles": "COc1ccc(Cl)cc1C(=O)NCCc1ccc(S(=O)(=O)NC(=O)NC2CCCCC2)cc1", "note": "[Glibenclamide, glibenclamide, reference compound]", "values": [{"measurement": "Leukocyte adherence without aspirin", "setting": "[1]; glibenclamide alone, 10 mg/kg i.p.", "result": "did not affect leukocyte adherence"}, {"measurement": "Aspirin-induced leukocyte adherence", "setting": "[1]; intragastric pretreatment 60 min prior to aspirin (XXXV 130 mg/kg, mesalamine 50 mg/kg), glibenclamide 10 mg/kg i.p., FIG. 19", "result": "did not affect the magnitude of aspirin-induced leukocyte adherence"}]}
{"smiles": "Oc1ccc(-c2cc(=S)ss2)cc1", "note": "[ADT-OH, 5-p-hydroxyphenyl-1,2-dithione-3-thione, reference compound]", "values": [{"measurement": "H2S release in buffer", "setting": "[6]", "result": "did not release significant H2S"}, {"measurement": "Pain perception score", "setting": "[4]; [10]", "result": "Only Compound XXXV and Compound XXVII significantly reduced pain perception"}]}
